From patent US5800838A, “Composition that inhibits or destroys at least one unicellular living organism containing fluorine F- and Lithium li+” (priority 1987, dated 1998)
Values after ≈ are worked out from the molar mass of the structure shown. Read-outs that look alike come from different tables or passages of the source.

Columns and labels:
[1] = test system: Escherichia coli (TEM plasmid); experiment: microbe, parasite or virus in culture; assay type: cell-based
staphylococcus aeurus = assay type: cell-based; conditions: Fli 4 ppm
Experimental: Strains Gram+ and Gram- (wild-type hospital) having a resistant phenotype vis a vis standard firstly and secondly used antibiotherapy were experimented on activated antibiotics.
250 experiments were conducted on the following strains: Streptococcus group B, C, D, F, G, Staphylococcus aureus, Staphylococcus epidermitis, Klebsiella pneumoniae, Klebsiella spirochete, Klebsiella oxytoca, Proteus mirabilis, Serratia marcescens, Escherichia coli, Citrobacter freundii, Enterobacter cloacae, Enterobacter calcoaceticus, Salmonella spirochete, Salmonella typhimurium, Pseudomonas aeruginosa, Haemophilus influenzae, Haemophilus sphrophilus, Acinetobacter calcoaeticus. […]

[2] = test system: β-Haemolytic streptococcus; experiment: Antibiotic activity on hospital strains normally resistant to amoxicillin; assay type: cell-based; conditions: read-out: 100% inhibitory concentration
Staphylococcus aureus [3] = experiment: as above; assay type: cell-based; conditions: read-out: 100% inhibitory concentration
Klebsiella pneumoniae [4] = experiment: as above; assay type: cell-based; conditions: read-out: 100% inhibitory concentration
[5] = test system: Haemophilus influenzae producing β-lactamase; experiment: Antibiotic activity of amoxicillin on hospital strains producing β-lactamase (Example 22); conditions: 4 ppm amoxicillin in the presence of 1 ppm clavulanic acid
Haemophilus influenzae = experiment: Antibiotic activity on hospital strains normally resistant to amoxicillin; assay type: cell-based
spermatozoa = experiment: SANDERS-CRAMER total spermicidal test according to IPPF standards; assay type: cell-based; conditions: alone
Klebsiella pneumoniae [6] = experiment: "chess" test, dilution in liquid medium, Trial 3; assay type: cell-based
Source text: (§1) Substance A was gentamicine
The strain was Klebsiella pneumoniae (wild-type hospital strain)

[7] = test system: pseudomonas aeruginosa and Escherichia coli; assay type: cell-based
Source text: It is known that a strain develops a resistance against an antibiotic substance with which it is left in contact, by a phenotypical mutation procedure.
This phenomena has been studied on pseudomonas aeruginosa and Escherichia coli (wild-type hospital strains) which commonly develop resistance against aminosides. The antibiotic substance choosen was thus gentamicine which is an aminoside antibiotic.
And the growth of the resistance was studied with gentamicine alone, then with gentamicine in presence of Fli.
The trial was conducted on 12 days, and the MIC of gentamicine alone and of gentamicine in presence of Fli (4 ppm) was determined each day on transportplates in liquid medium with a serie of dilution in Mueller/Hinton agar.
The MBC (Minimal Bactericide Concentration) was also determined from the solution after determination of the MIC seeded on agar adapted to the strain. The MBC is read for a percentage of survivors less than 0,20%.

MAC COY cells = experiment: Cytotoxic activity with respect to MAC COY cells; conditions: LiF at 1 mg/l; benzalkonium chloride under the conditions of the trials
Pseudomonas aeruginosa [8] = experiment: "chess" test, dilution in liquid medium, Trial 4; assay type: cell-based
Source text: as §1
The strain was pseudomonas aeruginosa (wild-type hospital resistant strain)

proteus mirabilis [9] = experiment: "chess" test, dilution in liquid medium, Trial 2; assay type: cell-based
Source text: as §1
The strain was a very resistant proteus mirabilis (wild-type hospital)

Staphylococcus aureus [10] = test system: Staphylococcus aureus
Experimental: Concentration series of two antibiotic substances A and B are prepared in the geometric ratio of 2 are combined and the following values are determined:
MIC B/A = minimal inhibiting concentration B in presence of A [formula]
The MIC of the bacteriostatic effect is read when the percentage of surviving strains is less or equal to 1%.
The combination of the substances A and B is synergistic as regards the bacteriostatic effect when FIC≤0,75. The combination is additive when FIC=1. The combination is insensible when 1<FIC≤2. The combination is antagonistic when FIC>2.
Substance A was tetracycline (concentration serie from 0,25 to 128 mg/l)
Substance B was Fli (concentration serie from 0,25 to 16 mg/l)
The strain was staphylococcus aureus (wild-type hospital resistant strain)

proteus mirabilis [11] = experiment: MIC of gentamicine, inclined agar with concentration gradient; assay type: cell-based; conditions: alone; SENSIBLE strains
Experimental: (§2) The strains used were wild-type hospital strains having a resistant phenotype as regards gentamicine: pseudomonas aeruginosa, proteus mirabilis, serratia marcescens.
(§3) The phenotype of the strains was determined by diffusion in gradient on selective agar. Then, each group of strains having the same phenotype (resistant or sensible) was seeded on inclined agar having a gradient of concentration of the composition.
(§4) This methodology is explained by SZYBALSKI and BRYSON in "Selection de mutants resistant aux antibiotiques", L'antibiogramme, Vigot, p. 259-260.
(§5) The results are shown in the following table illustrating the MIC of gentamicine (aminoglycoside antibiotic).
(§6) x/y means a concentration read between x ppm and y ppm.

serratia marcescens [12] = experiment: as above; assay type: cell-based; conditions: alone; SENSIBLE strains
Experimental: as §2, §3, §4, §5, §6

Pseudomonas aeruginosa [13] = experiment: as above; assay type: cell-based; conditions: alone; SENSIBLE strains
Experimental: as §2, §3, §4, §5, §6

salmonella spirochete = experiment: "Time killing curve", optical density at 600 nm; assay type: cell-based; conditions: Fli 32 ppm
Experimental: (§7) The kinetics of the bacterial growth of serratia marcescens and salmonella spirochete has been studied with the "Time killing curve" methodology, for gentamicine (64 ppm) alone, Fli (32 ppm) and gentamicine (64 ppm) in presence of Fli (32 ppm). The bacterial growth is determined by spectrophotometric reading of the optical density for a wavelength of 600 nm.
(§8) The following table illustrates the optical density (1/100) obtained: […]

serratia marcescens [14] = experiment: "Time killing curve", optical density at 600 nm; assay type: cell-based; conditions: Fli 32 ppm
Experimental: as §7, §8

[15] = read-out: 100% inhibitory concentration, alone
[16] = B (Fli) in presence of A (gentamicine)
[17] = alone, wild-type hospital resistant strain

CC1(C)S[C@@H]2[C@H](NC(=O)[C@H](N)c3ccc(O)cc3)C(=O)N2[C@H]1C(=O)O [amoxicillin]
MIC [1, 15]: > 128 µg/mL | MIC ([1]; read-out: 100% inhibitory concentration, in the presence of LiF 8 ppm): 32 µg/mL | phenotype in presence of Fli (staphylococcus aeurus): the resistant phenotype was not changed | MIC ([2]; alone): 16 µg/mL (≈ 43.8 µM) | MIC ([2]; in the presence of LiF 8 ppm): 4 µg/mL | MIC (Staphylococcus aureus [3]; alone): 32 µg/mL (≈ 87.6 µM) | MIC (Staphylococcus aureus [3]; in the presence of LiF 8 ppm): 8 µg/mL | MIC (Klebsiella pneumoniae [4]; alone): 64 µg/mL (≈ 175 µM) | MIC (Klebsiella pneumoniae [4]; in the presence of LiF 8 ppm): 2 µg/mL | time to inhibition of the strains to 100% [5]: 24 h | MIC (Haemophilus influenzae; in the presence of LiF 8 ppm, read-out: 100% inhibitory concentration): 32 µg/mL | MIC (Haemophilus influenzae; [15]): > 128 µg/mL

[F-].[Li+] [lithium fluoride]
MIC (spermatozoa): ~3 ppm | MIC, equivalent in % (spermatozoa): ~0.0003% | MIC B/A (Klebsiella pneumoniae [6]; [16]): 32 µg/mL | MIC alone (MIC A, MIC B) (Klebsiella pneumoniae [6]; alone, wild-type hospital strain): 128 µg/mL | effect on creation of resistance [7]: retards the creation of the resistance and reduces to the half the capability of each strain for developping such resistances | resistance developed by the strain ([7]; against Fli, 12 days): no resistance is developped | toxic activity (MAC COY cells): does not have toxic activity | MIC B/A (Pseudomonas aeruginosa [8]; [16]): 16 µg/mL | MIC alone (MIC A, MIC B) (Pseudomonas aeruginosa [8]; [17]): 128 µg/mL | MIC B/A (proteus mirabilis [9]; [16]): 16 µg/mL | MIC alone (MIC A, MIC B) (proteus mirabilis [9]; alone, very resistant wild-type hospital strain): 128 µg/mL | MIC B/A (Staphylococcus aureus [10]; B (Fli) in presence of A (tetracycline)): 16 µg/mL | MIC alone (MIC A, MIC B) (Staphylococcus aureus [10]; [17]): 64 µg/mL | MIC (proteus mirabilis [11]): > 32 ppm or mg/l | MIC (serratia marcescens [12]): > 32 ppm or mg/l | MIC (Pseudomonas aeruginosa [13]): > 32 ppm or mg/l | optical density (1/100) (salmonella spirochete; 3 h 00, gentamicine 64 ppm): 14 1/100 | optical density (1/100) (salmonella spirochete; 24 h 00, gentamicine 64 ppm): 20 1/100 | optical density (1/100) (serratia marcescens [14]; 3 h 00, gentamicine 64 ppm): 13 1/100 | optical density (1/100) (serratia marcescens [14]; 6 h 00, gentamicine 64 ppm): 15 1/100 | optical density (1/100) (serratia marcescens [14]; 24 h 00, gentamicine 64 ppm): 18 1/100
